US4221909A, “P-Acetamidobenzoic acid salts of 9-(hydroxyalkyl) purines” (Sloan-Kettering Institute for Cancer Research, priority 1978, dated 1980)

Columns and labels:
Type in all cases: cell-based
[1] = system: Influenza A USSR/90(H1 N1); experiment: Anti-Influenza Activity (Hemadsorption Assay), Influenza A USSR/90
Experimental: Upon infection of a monolayer of tissue culture cells by influenza virus, the cell surface is altered so that guinea pig erythrocytes can be adsorbed to the cell surface. The number of foci of adsorbed cells (hemadsorption foci forming units HAFFU) is a quantitative measure of infectivity. The method is as follows.
The monolayers were subcultured in the following manner: The medium was poured off, and the monolayer washed two times with approximately 50 ml per wash of calcium and magnesium free phosphate buffered saline (PBS), (GIBCO #419) at a pH of 7.2. One ml of trypsin-EDTA solution (GIBCO #530L) containing 0.5 g trypsin (1:250) and 2.0 g EDTA/liter of Modified Puck's Saline A was added at 37° C. to each flask and dispersed over the monolayer with gentle shaking. The flasks were then placed in an incubator at 37° C. for approximately 3-5 minutes depending on the time required to dislodge the cells. Occasional shaking was required. Ten ml of planting medium was added to each flask and the cells dispersed by aspirating and expelling the suspension from the pipette. The contents of a series of flasks were pooled and the cells in the suspension were diluted with planting medium to 7-8.5×10^4 cells/ml. The planting medium consisted of the following composition: Minimum Essential Medium Eagles (MEM) with Earle's salts and HEPES buffer (GIBCO #236) supplemented by adding the following substances as specified to 87 ml of MEM:
The following day the medium was removed and replaced with fresh planting medium. The monolayers were used for experimentation when they reached a condition in which they were almost confluent (approximately 3-4 days).
When the Linbro tray HeLa cell cultures were ready for experimentation (see cells), the medium was decanted and 1 ml of maintenance medium (MEM with FCS reduced to 3%) containing the compound being tested at a given concentration was added to 4 replicate cultures within a tray.
A series of different drug concentrations ranging from 2.3 to 150 μg/ml were used. Maintenance medium alone was used for control cultures. After the administration of drug and control medium, 0.1 ml of the diluted viral suspension was added to experimental groups and infected control cultures. Saline alone was added to non-infected control cultures. The Linbro trays were then incubated at 37° C. for 18 hours, after which media in all groups was aspirated. Each culture was washed once with PBS. The saline was aspirated and 0.5 ml of a 0.4% v/v guinea pig red blood cell suspension in PBS was added to each culture well. The cultures remained at room temperature for 30 minutes after which the medium was decanted and culture washed […] with PBS to remove all but the specifically bound red cells. After the third wash, maintenance medium was added to all cultures.
A Howard Micrometer eyepiece (C8385) was inserted within the ocular of a Nikon inverted phase contrast microscope. Each culture was scanned with a 4× low paper objective and direct counts of hemadsorbed red cells were counted using the eyepiece grid as a field marker. Partial or complete fields were counted per experimental group depending on the resulting number and density of hemadsorbed cells in the infected control cultures. Magnification of 60× or 150× were chosen to obtain the best conditions for enumerating the hemadsorbed cells. Field factors were calculated for counting hemadsorption at 60× and 150×. At 60× magnification, total field count was calculated using a multiplication factor of 55.5. At 150× magnification the multiplication factor was 273. The multiplication factors of 55.5 and 273 represent the total number of fields at 60× and 150× magnifications, respectively. The number of fields counted ranged from 3 to 5 per well with 3 to 4 wells per treatment group employed (see raw data tables in results section for number of fields examined). Means and standard errors were calculated and the data was evaluated using student's t-test analysis.

[2] = system: Mouse spleen cells; experiment: Mitogen Induced (Con A) Mouse Lymphocyte Proliferation
Excerpt: (§1) The following three assay procedures are used to evaluate the ability of the test substances to modulate the activity of several classes of cells in the immune system. In these systems it is possible to identify both immunopotentiating activity (evidence by an enhancement of the parameter examined) as well as immunosuppressant activity (evidenced by an inhibition of the parameter examined).
1. Mitogen--Induced Mouse Spleen Cell Assay--Mouse spleen cells contain a population of both B and T lymphocytes which can be stimulated by a number of foreign substances (e.g., plant mitogens such as Con A) to proliferate. This enhanced proliferation is an indication of enhanced cell mediated immunity. The method below describes the system used to evaluate test substances as immunopotentiators.
Concanavalin A (Calbiochem, La Jolla, Calif.), Lot #210073, lyophilized in NaCl, was prepared first as a 1% solution and diluted as a 2× concentration for each dilution (0.5, 1.0, 2.5 μg/ml).
Six to eight week old male Balb/c and C3 H inbred mice were obtained from the following sources: Flow Research Animals, Inc., Dublin, Va.; Charles River Breeding Laboratories, Wilmington, Mass.; Laboratory Supply Company, Indianapolis, Ind.; and Lionel Strong Foundation, San Diego, Calif.
Three to five mice were sacrificed by cervical dislocation and the spleens aseptically removed. Pooled spleens were minced and teased with sterile forceps; then strained through a double layer of nylon mesh. The cell suspension was washed once with 15 ml of RPMI 1640 supplemented with 5% fetal calf serum and antibiotics. Cells were cultured at a concentration of 10^6 cells/0.1 ml/well in micro-plates. Cultures were incubated in the presence or absence of mitogen in a humidified atmosphere containing 5% CO2 for 48 hours. The test compound was added to cultures at various concentrations concommitant with mitogen.
Proliferation was assayed by the degree of incorporation of 1.0 μCi of [^3 H] thymidine over an 18 hour incubation period. Cultures were harvested by a MASH unit (Otto Hiller Co., Madison, Wisconsin) and thymidine incorporation was assayed by liquid scintillation spectrometry. Cultures were performed in triplicate and data are expressed as means plus or minus the strandard error of the experimental means. Drug stimulation indices over control values were also calculated and portrayed graphically.

[3] = system: human peripheral blood lymphocytes; experiment: Mitogen Induced (PHA) Human Lymphocyte Proliferation
[4] = system: influenza virus; experiment: Anti-influenza activity (summary)
[5] = system: guinea pig peritoneal macrophages; experiment: Lymphokine Induced (MMF) Guinea Pig Macrophage Proliferation
Excerpt: as §1
3. The macrophage represents a subpopulation of white blood cells which is an important component of the immune system in control of both cellular and humoral immunity. The assay system described below evaluates the substances studied as potentiators of macrophage function.
Phytohemagglutinin(PHA) (HA-17) was purchased from Burroughs Wellcome. A preparation containing Macrophage Mitogen Factor (MMF) and Macrophage Activating Factor (MAF) was prepared from antigen-stimulated immune lymph node lymphocytes (guinea pig) as previously described by Hadden et al, Nature 257, 483-485 (1975). […] The active fraction was employed in both the proliferation and activation assays.
Ficoll-hypaque purified human peripheral blood lymphocytes were prepared and PHA-induced lymphocyte proliferation was assayed by the incorporation of tritiated thymidine as described in Hadden et al, Cell. Immunol. 20, 98-103 (1975). Each compound was analyzed in the presence of suboptimal, optimal and supraoptimal concentrations of PHA (0.001, 0.01, 0.1 units/ml respectively). Paraffin oil-induced guinea pig peritoneal macrophages were prepared and incubated as monolayer culture (>98% pure macrophages). Lymphokine (MMF)-induced proliferation was assayed by the incorporation of triturated thymidine at 3 and 5 days of culture as described, Hadden et al, Nature 257, 483-485 (1975). Lymphokine (MAF)-induced macrophage activation to kill Listeria monocytogenes following 5 days of culture in the presence or absence of MAF was performed during a 6 hour period as described in Hadden and England, Immunopharmacology, pages 87-100 (Plenum Press, 1977). Phagocytosis was quantitated during a 20-minute exposure to Listeria monocytogenes by counting the number of macrophages containing bacteria and the number of bacteria per phagocytic cell on gram stained monolayers in Labtek chambers. Intracellular killing of bacteria was evaluated by counting the number of cells containing bacteria and the number of bacteria/cell 6 hours after the initial 20 minute exposure. Parallel experiments in which macrophages were lysed and intracellular bacteria were cultured confirm the validity of bacterial activity determined by this manner in this sytem. The drugs were employed in each of the three systems over serial log concentration range in triplicate in the presence and absence of mitogen or lymphokine. Each type of experiment was performed at least three times. Previous experiments indicate a parallelism of response to pharmacologic modulation in the proliferation and activation assays.

SMILES	Maximum Percent Change, Mitogen Induced (Con A) Mouse Lymph. Prolif. ([2]; 1.0-10)	Maximum Percent Change, Mitogen Induced (Con A) Mouse Lymph. Prolif. ([2]; 10-100)	Maximum Percent Change, Mitogen Induced (Con A) Mouse Lymph. Prolif. ([2]; .01-1.0)	Maximum Percent Change, Mitogen Induced (PHA) Human Lymph. Prolif. ([3]; 1.0-10)	Maximum Percent Change, Mitogen Induced (PHA) Human Lymph. Prolif. ([3]; 10-100)	Maximum Percent Change, Mitogen Induced (PHA) Human Lymph. Prolif. ([3]; .01-1.0)	DIP.PAcBA potentiation of Anti-Influenza activity [4]	further results
CC(O)Cn1cnc2c(N)ncnc21 (centres unmarked) [NPT 15431, 9-(2-HYDROXY-1-PROPYL)ADENINE]	-27%	-47%	-15%	0%	0%	0%	–	% Inhibition of Hemadsorption Foci ([1]; Conc. 10-100 μg/ml, listed as 15431): 22%; % Inhibition of Hemadsorption Foci ([1]; Conc. >100 μg/ml, listed as 15431): 0%
OCCn1cnc2c(S)ncnc21 [NPT 15437]	–	–	–	–	–	–	Yes	% Inhibition of Hemadsorption Foci ([1]; Conc. 10-100 μg/ml): 65%; % Inhibition of Hemadsorption Foci ([1]; Conc. >100 μg/ml, listed as 15437): 65%
CC(CO)n1cnc2c(N)ncnc21 (centres unmarked) [NPT 15433, 9-(1-HYDROXY-2-PROPYL)ADENINE]	-23%	-65%	+15%	0%	-50%	53%	–	% Inhibition of Hemadsorption Foci ([1]; Conc. >100 μg/ml, listed as 15433): 0%
CC(CO)n1cnc2c(=O)[nH]cnc21 (centres unmarked) [NPT 15443, 9-(1-HYDROXY-2-PROPYL)HYPOXANTHINE]	+27%	+27%	+17%	+13%	0%	0%	–	% Inhibition of Hemadsorption Foci ([1]; Conc. 10-100 μg/ml, listed as 15443): 0%; % Inhibition of Hemadsorption Foci ([1]; Conc. >100 μg/ml, listed as 15443): 0%; Maximum Percent Change, Lymphokine Induced (MMF) Guinea Pig Mac. Prolif. ([5]; 1.0-10): 0%; Maximum Percent Change, Lymphokine Induced (MMF) Guinea Pig Mac. Prolif. ([5]; .01-1.0): +20%
CC(O)Cn1cnc2c(N)ncnc21 (centres unmarked) [NPT 15432]	–	–	–	–	–	–	Yes	% Inhibition of Hemadsorption Foci ([1]; Conc. 10-100 μg/ml, listed as 15432): 48%; % Inhibition of Hemadsorption Foci ([1]; Conc. >100 μg/ml, listed as 15432): 62%
O=c1[nH]cnc2c1ncn2CCO [NPT 15425, 9-HYDROXYETHYL HYPOXANTHINE]	0%	–	11%	0%	0%	100%	–	–
CC(CO)n1cnc2c(Cl)ncnc21 (centres unmarked) [NPT 15423, 9-(1-HYDROXY-2-PROPANE)-6-CHLOROPURINE]	–	–	–	–	–	–	–	inhibition ([1]; Influenza A virus, Conc. 10-100 μg/ml, read-out: % Inhibition of Hemadsorption Foci): 13%
CC(=O)Nc1ccc(C(=O)O)cc1.CC(O)CN(C)C [compound 15110, dimethylamino-2-propanol-p-acetamido benzoate, reference compound]	–	–	–	–	–	–	–	% Inhibition of Hemadsorption Foci ([1]; Conc. 10-100 μg/ml): 0%; % Inhibition of Hemadsorption Foci ([1]; Conc. <10 μg/ml): 0%; % Inhibition of Hemadsorption Foci ([1]; Conc. >100 μg/ml): 20%
CC(CO)n1cnc2c(N)ncnc21 (centres unmarked) [NPT 15434]	–	–	–	–	–	–	Yes	% Inhibition of Hemadsorption Foci ([1]; Conc. 10-100 μg/ml): 41%; % Inhibition of Hemadsorption Foci ([1]; Conc. >100 μg/ml, listed as 15434): 62%
CC(CO)n1cnc2c(=O)[nH]cnc21 (centres unmarked) [NPT 15444]	–	–	–	–	–	–	Yes	% Inhibition of Hemadsorption Foci ([1]; Conc. 10-100 μg/ml, listed as 15444): 44%; % Inhibition of Hemadsorption Foci ([1]; Conc. >100 μg/ml, listed as 15444): 54%
CC(O)Cn1cnc2c(=O)[nH]cnc21 (centres unmarked) [NPT 15446, 9-(2-HYDROXY-1-PROPYL)HYDROXANTHINE]	12%	0%	6%	0%	0%	0%	–	% Inhibition of Hemadsorption Foci ([1]; Conc. 10-100 μg/ml, listed as 15446): 0%; % Inhibition of Hemadsorption Foci ([1]; Conc. <10 μg/ml, listed as 15446): 2%; % Inhibition of Hemadsorption Foci ([1]; Conc. >100 μg/ml, listed as 15446): 0%; Maximum Percent Change, Lymphokine Induced (MMF) Guinea Pig Mac. Prolif. ([5]; 1.0-10): 0%; Maximum Percent Change, Lymphokine Induced (MMF) Guinea Pig Mac. Prolif. ([5]; 10-100): 0%; Maximum Percent Change, Lymphokine Induced (MMF) Guinea Pig Mac. Prolif. ([5]; .01-1.0): 0%
CC(O)Cn1cnc2c(=O)[nH]cnc21 (centres unmarked) [NPT 15447]	–	–	–	–	–	–	Yes	% Inhibition of Hemadsorption Foci ([1]; Conc. 10-100 μg/ml, listed as 15447): 26%; % Inhibition of Hemadsorption Foci ([1]; Conc. <10 μg/ml, listed as 15447): 10%; % Inhibition of Hemadsorption Foci ([1]; Conc. >100 μg/ml, listed as 15447): 34%
